Data on 1 molecule can be found in patent publication US20260221281A1, “PREDICTING PATIENT OUTCOMES RELATED TO PANCREATIC CANCER” (Valar Labs, Inc., priority 2023, published 2026).

What all share (type): in vivo, human
The test system of one test is resected PDAC tumors. In words: DSS of resected PDAC patients receiving gemcitabine, divided into two histological subtypes by the model (Example 3). The text has this: One hundred and thirty-nine (139) whole-slide digitized histological slides corresponding to one hundred and two (102) resected PDAC tumors from a data set were used as a training set. This dataset corresponded to patients that had received either gemcitabine-backbone or 5 FU-backbone chemotherapy as their first-line adjuvant treatment. An AI-based pathology platform such as the one described herein was used to extract nuclei images from tissue regions using segmentation models and compute geometric features of these nuclei. The subsequent features were then correlated with Disease Specific Survival (DSS) in order to construct a signature associated with treatment benefit. The resulting signature was compared against two board certified pathologists using the grade of the digital slides images to classify patients into above or below average DSS buckets.

Test [1] concerns resected pancreatic ductal adenocarcinoma (PDAC). In words: DSS and time to recurrence after adjuvant gemcitabine in resected PDAC, external cohort stratified by VPG signature. The settings on record: for median time to recurrence: adjuvant gemcitabine-based therapy (n=46). The text has this: The first external data set represented a set of consecutive 24 patients treated with resection and adjuvant gemcitabine. Clinical data was obtained via manual chart review of the electronic medical record. Digitally scanned tissue microarray specimens were used for image analysis. The cores were 1 mm and were obtained from formalin-fixed, paraffin-embedded (FFPE) samples of extra portions of surgical resections. Whole tissue resection specimens were not available for analysis for this study. Scanned histologic images were analyzed through an AI-based pathology platform in accordance with the systems and methods described herein. The process included tissue segmentation, nuclei segmentation, and finally geometric feature extraction. Tissue was segmented via color-based thresholding to remove empty regions of the slide. Patches of size 2132×2132 were extracted from tissue regions and a validated deep learning model developed was used to segment and classify each nucleus automatically into five classes (i.e., Neoplastic, Connective, No-Neoplastic/Epithelial, Necrotic, Inflammatory). Descriptive morphometric features were then computed for each nucleus. Geometric features were then aggregated first at the patch, and subsequently at the patient level using summary statistics including the mean, standard deviation, skewness and kurtosis to produce the final feature vector for a patient. This feature vector was used as the input to a cox proportional hazards model that used the least absolute shrinkage and selection operator to identify the most correlated features with DSS along with their coefficients on the training set. Subsequently, the performance of the signature in stratifying patients was assessed in two external validation cohorts. A first external cohort 1005 included 45 patients who underwent PDAC resection followed by gemcitabine treatment for whom digitally scanned tissue microarrays of tumor specimens were available. A second external cohort 1007 included 161 patients, whose tumors were resected between 1978 and 2008, when adjuvant treatment was not administered as part of the standard of care. To investigate performance beyond the [NT], experiments applying the model in a retrospective cohort of adjuvant-gemcitabine-treated patients and a retrospective cohort of untreated patients were performed. As illustrated in FIGS. 17A-17D, the VPG signature generalizes to external cohorts of gemcitabine-treated patients but not untreated patients.

A further test relates to resected PDAC. The test can be described thus: DSS and RFS of post-operatively treated resected PDAC patients, external cohort stratified by gemcitabine-response signature (Example 4). Conditions: external cohort (45 patients). An excerpt: Digitized histological hematoxylin and cosin stained tissue microarray blocks corresponding to post-operatively treated resected PDAC patients from 2011-2015 were used in this experiment. Of the 45 patients, 22 were neoadjuvantly treated with either gemcitabine or 5-FIU backbone cytotoxic chemotherapy. Using the histologic images, the AI-based pathology platform extracted nuclei images from tissue regions using segmentation models and computed geometric features of these nuclei. Patients were stratified by the signature previously associated with gemcitabine response in a dataset into low and high risk groups, and Disease Specific Survival (DSS) and Recurrence Free Survival (RFS) was compared between the stratified groups via Kaplan Meier estimators and log-rank test.

Test [2] relates to resected pancreatic ductal adenocarcinoma (PDAC). In words: DSS after adjuvant gemcitabine in resected PDAC, TCGA test set stratified by VPG signature. The text has this:
Data from three cohorts of patients were utilized for this experiment: a cohort of 93 patients forming a training data set, a cohort of 46 patients forming a first external data set, and a cohort of 161 patients forming a second external data set. The training data set was identified by selecting PDAC patients who had received adjuvant gemcitabine and no 5-fluorouracil. The training data set included available histopathologic images, data on disease specific survival, and demographic details. From the available histopathologic images, the image identified as the diagnostic slide was used for image analysis by the AI-based pathology platform. Scanned histologic images were analyzed through an AI-based pathology platform in accordance with the systems and methods described herein. The process included tissue segmentation, nuclei segmentation, and finally geometric feature extraction. Tissue was segmented via color-based thresholding to remove empty regions of the slide. Patches of size 2132×2132 were extracted from tissue regions and a validated deep learning model developed was used to segment and classify each nucleus automatically into five classes (i.e., Neoplastic, Connective, No-Neoplastic/Epithelial, Necrotic, Inflammatory). Descriptive morphometric features were then computed for each nucleus. Geometric features were then aggregated first at the patch, and subsequently at the patient level using summary statistics including the mean, standard deviation, skewness and kurtosis to produce the final feature vector for a patient. This feature vector was used as the input to a cox proportional hazards model that used the least absolute shrinkage and selection operator to identify the most correlated features with DSS along with their coefficients on the training set. FIG. 9 provides an illustration of a process to construct a histologic signature associated with disease-specific survival (DSS) after adjuvant gemcitabine. A dataset of scanned whole slide images and the associated clinical data from a cohort of 93 PDAC patients treated with adjuvant gemcitabine in The Cancer Genome Atlas (TCGA) was analyzed. The process to construct a histologic signature includes obtaining a slide 901, digitizing a slide 903, and determining the presence or absence of a histologic biomarker 905. Slides may be obtained in step 901 by resection of pancreatic ductal adenocarcinoma (PDAC). The slides may then then be digitized in step 903 by scanning hematoxylin and eosin-stained resection specimens for whole slide images and subsequently performing digital pathology analysis. […]

`Nc1ccn([C@@H]2O[C@H](CO)[C@@H](O)C2(F)F)c(=O)n1` [gemcitabine]: the “median DSS” value with resected PDAC tumors (first histological subtype (threshold: average expected lifetime)) was 586 days; with resected PDAC tumors (second histological subtype (threshold: average expected lifetime)) it was 394 days; in test [1] (adjuvant gemcitabine-based therapy, external cohort (n=46), negative VPG signature), 16 months; in test [1] (adjuvant gemcitabine-based therapy, external cohort (n=46), positive VPG signature) it was 43.1 months; in test [1] (external cohort, no therapy prior to surgery (n=24), negative VPG signature), 12.9 months; in test [1] (external cohort, no therapy prior to surgery (n=24), positive VPG signature), 40.2 months. Besides, the “median DSS” value in the test on resected PDAC (high risk group) is 16 months; in the test with resected PDAC (low risk group), 43 months; in test [2] (TCGA validation subset (47 patients), negative VPG signature), 16.0 months; in test [2] (TCGA validation subset (47 patients), positive VPG signature) it was 67.9 months; in test [2] (sub-group of 39 validation patients with RNAseq data, negative VPG signature), 16.0 months; in test [2] (sub-group of 39 validation patients with RNAseq data, positive VPG signature) it was 67.9 months. Also, the “median time to recurrence” value in test [1] (negative VPG signature) amounted to 9.1 months; in test [1] (positive VPG signature), 22.6 months. Also, the “median RFS” value in the test with resected PDAC (high risk group) stood at 9.1 months; in the test with resected PDAC (low risk group), 22.6 months.
